Laboratory results published in patent publication US20230064292A1, “METHODS OF TREATING PSMA-POSITIVE CANCER USING RADIONUCLIDE THERAPY” (priority 2020, published 2023).

Assays:
[1] = system: PSMA-expressing PC3-PIP cells; assay: Cellular uptake and internalization in PSMA-expressing PC3-PIP cells; assay type: cell-based
Excerpt: The PSMA binding scaffold of PSMA binds irreversibly to the extracellular enzymatic domain of PSMA leading to rapid internalization by PSMA-expressing cancer cells. Tumor cell uptake of CTT1403 is ˜84% after just 2½ hours (FIG. 1), compared to less than 40% tumor cell uptake of ^177Lu-PSMA-617 (structure shown below), in PSMA-expressing PC3-PIP cells.
Given that 99% of cell bound CTT1403 is internalized, compared to just 15% of ^177Lu-PSMA-617, targeting by CTT1403 is expected to confer a significant therapeutic advantage. This greater uptake will allow treatment of smaller tumors for a longer time. Both irreversible binding and cellular internalization increases exposure of target tissue to the therapeutic agent. Greater accumulation in the target tissue will permit a lower efficacious dose and/or dosing frequency, thus reducing a patient's total clinical exposure to the radionuclide and improving the therapeutic index.

[2] = reported value; cited from earlier work
[3] = 177Lu-PSMA-617 (7.4 GBq), Violet et al; cited from earlier work
tumor = conditions: cited from earlier work
[4] = previous dosimetry studies in patients; cited from earlier work
[5] = system: bone metastases in prostate cancer; conditions: palliative treatment of bone metastases in prostate cancer; cited from earlier work
[6] = 177Lu-PSMA-617 (7.4 GBq), Violet et al

Structure (SMILES)	cell bound agent that is internalized ([1]; PSMA-expressing PC3-PIP cells) [%]	Tumor cell uptake ([1]; after 2½ hours, PSMA-expressing PC3-PIP cells (FIG. 1))	half-life during the elimination phase [2] [h]	initial half-life during the distribution phase [2] [min]	Kidney dose, Dose Gy/GBq [3] [Gy/GBq]	Kidney dose, Mean Dose for (Gy) [3] [Gy]	Tumor (PSA < 50%), Dose Gy/GBq (tumor; [6]) [Gy/GBq]	Tumor (PSA < 50%), Mean Dose for (Gy) (tumor; [6])	Tumor (PSA ≥ 50%), Dose Gy/GBq (tumor; [6]) [Gy/GBq]	Tumor (PSA ≥ 50%), Mean Dose for (Gy) (tumor; [6])	tumor dose delivered that is associated with efficacy (reduction of circulating PSA) (tumor; over several cycles of therapy, published studies)	potential dose limited organs [4]	average increase in survival [5]
O=C([O-])CN1CCN(CC(=O)[O-])CCN(CC(=O)NCC2CCC(C(=O)N[C@@H](Cc3ccc4ccccc4c3)C(=O)NCCCC[C@H](NC(=O)N[C@@H](CCC(=O)O)C(=O)O)C(=O)O)CC2)CCN(CC(=O)[O-])CC1.[177Lu+3] (stereo partly shown) [177Lu-PSMA-617]	15	less than 40%	10.8 ± 2.5	9.6 ± 5.4	0.77	3.2	1.41	10.4	1.91	14.1	10-14 Gy	salivary glands, kidneys and bone marrow	–
[Cl][223Ra][Cl] [Radium-223 chloride]	–	–	–	–	–	–	–	–	–	–	–	–	3-4 months
